Patent US10471095B2, “Suspension of graphene oxide nanoflakes in water, its use and a method of preparation thereof” (priority 2014, dated 2019)

Test system: chicken embryo
Experiment: Toxicity of graphene oxide and nano-Pt in chicken embryo (in ovo)
Details: in vivo
Description: Biological models: study was conducted on models: 1. Chicken embryo maintained by in ovo method, which above all allowed for fast, accurate and insightful observations of potential toxicity, especially embryotoxicity of graphene oxide and Pt nanoparticles of various concentrations. 2. Glioblastoma multiforme GM (U-87) cell lines in order to observe basic mechanisms occurring in the cells under the influence of graphene oxide and platinum nanoparticles and having selected the used experimental factors 3. Glioblastoma multiforme (U-87) tumour grown by in ovo method in order to confirm or reject the preliminary results. This study allowed for the final verification of formulated hypotheses.
Step I—preliminary study—determination of potential toxic properties of graphene oxide and nano-Pt in contact with a living organism (chicken embryo) • Determination of the influence of graphene oxide and nano-Pt on homeostasis of the organism of chicken embryo (survival rate, growth and development, biochemical and morphological indicators of blood, expression of selected genes, image of microstructure and ultrastructure of the brain, apoptosis/necrosis and others). […] The study indicated a potential antitumor effect of Pt nanoparticles and a low degree of toxicity.

graphene oxide
toxic effects on biochemical and morphological indicators of blood, FGF, VEGF, PCNA gene expression, microstructure and ultrastructure of brain and liver: does not exhibit toxic effects
